Test results: PMC7824769, “Identification of Small Molecules Blocking the Pseudomonas aeruginosa Type III Secretion System Protein PcrV” (Biomolecules, 2021)
Several values for one entry are separate records, joined by “and”; a condition that tells them apart may be missing. Equal values may be shown once.

Assays:
PcrV = PcrV (Pseudomonas aeruginosa, UniProt G3XD49); test: SPR dose-response binding to immobilized PcrV (equilibrium analysis); settings: for Binding to PcrV in SPR (in words): dose-response SPR
Chain of PcrV (G3XD49 entry or part of it): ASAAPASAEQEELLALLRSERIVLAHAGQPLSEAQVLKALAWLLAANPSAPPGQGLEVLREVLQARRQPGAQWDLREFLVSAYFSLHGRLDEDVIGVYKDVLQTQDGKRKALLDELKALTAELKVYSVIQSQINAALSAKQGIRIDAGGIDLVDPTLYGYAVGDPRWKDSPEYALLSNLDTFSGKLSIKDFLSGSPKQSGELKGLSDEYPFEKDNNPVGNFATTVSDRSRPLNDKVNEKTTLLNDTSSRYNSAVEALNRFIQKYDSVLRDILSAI
Method: The SPR screening was performed using the ProteOn^TM XPR36 Protein Interaction Array System (Bio-Rad Laboratories Inc., Hercules, CA, USA) with ProteOn GLH sensor chip (Bio-Rad Laboratories Inc., Hercules, CA, USA), and the results were analyzed with the ProteOn Manager software^TM (Bio-Rad Laboratories Inc., Hercules, CA, USA), Excel 2016 (Microsoft Office), and GraphPad Prism 7.04. All SPR experiments were performed at 25 °C. The multichannel module of the ProteOn system was in the vertical position during protein immobilization. The proteins were attached to the surface of a GLH sensor chip via amine coupling chemistry. A buffer scouting was performed to elucidate the optimal binding conditions of PcrV to the GLH sensor chip. First, channels 1–4 on the chip surface were activated using a 1:1 mixture of 40 mM 1-ethyl-3-(3-dimethylaminopropyl)carbodiimide hydrochloride (EDAC) (Bio-Rad Laboratories Inc., Hercules, CA, USA) and 10 mM N-hydroxysulfosuccinimide (sulfo-NHS, Bio-Rad Laboratories Inc., Hercules, CA, USA) for 300 s at 30 µL/min. Next, the proteins PcrV (33,398.6 Da, 6.37 mg/mL) was diluted in 10 mM NaOAc (pH 4, 4.5, and 5) to 0.05 mg/mL. PcrV was immobilized in channel 1–3 for 540 s at 30 µL/min. Channel 4 was flushed with 10 mM NaOAc (pH 5) for 540 s at 30 µL/min. As deactivating agent, a 1:1 mixture of 1 M ethanolamine and milli-Q filtered water was used. The deactivating solution was injected over all four channels for 300 s at 30 µL/min. Phosphate buffered saline with Tween (PBST; 10 mM phosphate buffer pH 7.4, 140 mM NaCl, 2.7 mM KCl, and 0.05% Tween 20) was used as the running buffer. The final amount of immobilized protein was measured in resonance units (RU) relative to the signal of the baseline prior activation. […] Immobilization of PcrV diluted in sodium acetate of pH 4.5 in one channel and of pH 5 in one channel were used in the beginning of the screening procedure (for plate 1–26). Since no difference was found between the two pH values, the PcrV protein was diluted in sodium acetate at pH 5 only (in two channels) from plate 27 and the rest of the screen. The immobilization procedure for the screening was performed as described above with the addition that the control protein carbonic anhydrase isoenzyme II from bovine erythrocytes (CAII, Sigma-Aldrich, article number 2522) was immobilized in one channel that was activated and deactivated as described above. CAII (1 mg/mL in PBS) was deactivated when diluted in 10 mM sodium acetate (pH 4) to 0.05 mg/mL. Immobilization level of the deactivated CAII was 18,000 RU. Deactivated CAII was used as a control protein according to the recommendations by the ProteOn manufacturer (Bio-Rad Laboratories Inc., Hercules, CA, USA). As running buffer, we employed PBS (pH 7.4, 0.05% Tween 20).
First, the PcrV protein was immobilized in two channels as described above while keeping a blank channel which was activated and deactivated as described above. The multichannel module of the ProteOn system was in horizontal position during the small molecule interaction studies. They were serially diluted to (400,) 200, 100, 50, 25, 12.5, 6.25, and (3.125); or 100, 50, 25, and 12.5 µM; or 100, 66.7, 44.4, 29.6, 19.7, and 13.2 µM in PBST (0.05% Tween 20) with a total concentration of 5% DMSO in 96-well plates. The running buffer was PBST (0.05% Tween 20) containing 5% DMSO. The analytes were injected at a flowrate of 100 µL/min, contact time was 60 s, and dissociation time was 60–120 s. Solvent correction was performed continuously during the experiments to account for bulk response of DMSO. The data was then baseline-aligned, processed by channel referencing with the blank channel, and solvent-corrected. The equilibrium dissociation constant (KD) values were determined from equilibrium analysis in the ProteOn Manager software^TM. Solubility problems frequently hampered KD determination since the small molecules could not always be dissolved in concentrations high enough to reach a plateau. […]

[1] = system: J774 cells infected with P. aeruginosa strain PAK; test: cells; format: cell-based, Pseudomonas aeruginosa; settings: for viability at 25 µM / viability at 50 µM / viability at 100 µM / viability at 200 µM: Pseudomonas aeruginosa, uninfected control = 100%, infected control = 0%; for viability at 25 µM: J774, compound 25 µM, read-out: Viability Assay (% of Uninfected Control) 25 µM; for viability at 50 µM: J774, compound 50 µM, read-out: Viability Assay (% of Uninfected Control) 50 µM; for viability at 100 µM: J774, compound 100 µM, read-out: Viability Assay (% of Uninfected Control) 100 µM; for viability at 200 µM: J774, compound 200 µM; for Anti-virulence efficacy in the infection assay (in words): 25-200 µM
Method: The cell viability assay was performed essentially as described before. J774 cells were seeded in 96-well micro-titer plates (Nunc), 100 µL/well, to a final number of 50,000 cells/well in Dulbecco’s modified Eagle’s medium (DMEM) with glutamax (Merck) supplemented with 10% fetal calf serum (FCS) and 3 µg/mL gentamicin and incubated for 16-18 h. Overnight cultures of the P. aeruginosa strains PAK and PAKpcrV [10] were grown in Luria Broth (LB) on a rotary shaker at 220 rpm at 37 °C. Prior to infection, the bacteria were diluted 1:10 in DMEM + glutamax and incubated for 1 h at 37 °C (shaking). The J774 cells were washed once with PBS, then 30 µL of DMEM with glutamax and 10% FCS supplemented with the potential binders at concentrations of 50, 100, 200, and 400 µM were added to the wells in triplicates. The infection was initiated by adding 30 µL of the diluted bacterial solutions (where the OD600 had been diluted to 0.0008) to each well to initiate infection. This infection results in a final bacterial concentration of OD600 = 0.0004 and a multiplicities of infection (MOI) of approximately 8, with final concentrations of the compounds at 25, 50, 100, and 200 µM in 60 µL of DMEM + glutamax and 5% FCS. In the primary screening, the compounds were run at one concentration (100 µM) in duplicates. As an infection control, the wild-type strain PAK with 1% DMSO was added, and as a positive control, PAKpcrV with 1% DMSO was added into four wells each. After 3 h and 30 min, 10 µL of UptiBlue Viable Cell Counting Kit (Interchime, France) was added to all wells. The infection was followed under the light microscope and the fluorescence (excitation 535 nm and emission 595 nm) was measured at 4, 5, and 6 h in a microplate reader (Synergy™ H4, Biotek). The results were calculated as percentage of living cells compared to uninfected control, where the uninfected control was set to 100% living cells and the infected control was set to 0% living cells. As a control, compounds were added to uninfected cells in a parallel experiment and viability was calculated as above to screen for cell toxicity. A compound was considered toxic if the viability was <80% of the uninfected control after 6 h of incubation and if a visual change of cell morphology was observed by microscopy. Z’ was calculated for each plate to ensure good quality throughout the screening. Only results from plates with a Z’ > 0.4 were counted. Standard deviation was calculated with Gaussian approximation when appropriate and shown as error bars in Figure 3C and Figure 4A.
The T3SS is important for P. aeruginosa infection of eukaryotic cells, and a T3SS activator mutant or a mutant lacking the T3SS tip protein PcrV are not able to infect eukaryotic cells. The macrophage cell line, J774, was infected with the wild-type P. aeruginosa strain PAK, and the potential PcrV binders were added to the wells at a final concentration of 100 µM to screen for inhibition of infection. The T3SS-mediated cytotoxic effect on the eukaryotic cells was measured by using a viability staining method (Uptiblue, Interchim), and the results were measured after 4, 5, and 6 h of infection. The pcrV-mutant (PAKpcrV), which is not able to infect macrophages due to deletion of the PcrV protein, was used as a control.

[2] = SPR KD, equilibrium analysis, mean ± SD of three or more independent experiments, individual values where n < 3, 25 °C, PBST 5% DMSO
[3] = KD ± standard error of KD (Table S1), single experiment, standard error from ProteOn Manager software

Compound | Kd (PcrV; [2]) | Binding to PcrV in SPR (in words) (PcrV) | viability at 25 µM [1] | viability at 50 µM [1] | viability at 100 µM [1] | viability at 200 µM [1] | Kd (PcrV; [3]) | Rmax (Table S1) (PcrV; single experiment) | Anti-virulence efficacy in the infection assay (in words) [1]
Cc1cc(Br)cc(C)c1OCCCC(=O)O [Compound 13] | 431 ± 110 µM | reduced binding | 19% | 18% | 21% | 20% |  |  | 
Cc1cc(OCCCC(=O)O)cc(C)c1Br [Compound 14] | < 150 µM and 148 µM |  | 13% | 23% | 26% | 32% | 80.7 ± 30.3 µM | 78.9 | as efficacious as or better than H1
O=C(O)CCCOc1ccc(C2CCCCC2)cc1 [Compound 15] | 153 µM |  | 12% | 17% | 24% | 17% |  |  | 
O=C(O)CCCOc1ccc(Cc2ccccc2)cc1 [Compound 16] | > 600 µM |  |  |  |  |  |  |  | 
Cc1c(Br)ccc(OCCCC(=O)N2CCCC(C(=O)O)C2)c1C (centres unmarked) [Compound 20] | 71 µM and 131 µM |  | 15% | 15% | 15% | 9% | 71.2 ± 23 µM |  | no or modest anti-virulence activity without clear dose-response
Cc1c(Br)ccc(OCCCC(=O)NC(C(=O)O)c2ccccc2)c1C (centres unmarked) [Compound 21] | 67 µM and 88 µM |  | 12% | 26% | 36% | 30% | 66.5 ± 18.5 µM | 149.8 | 
Cc1c(Br)ccc(OCCCC(=O)N2CCCCC2C(=O)O)c1C (centres unmarked) [Compound 22] | 62 µM and 77 µM |  | 18% | 27% | 29% | 28% | 61.5 ± 14.9 µM | 108.6 | 
Cc1c(Br)ccc(OCCCC(=O)Nc2cc(F)c(F)cc2C(=O)O)c1C [Compound 24] | > 600 µM | failed to bind PcrV |  |  |  |  |  |  | 
Cc1c(Br)ccc(OCCCC(=O)NS(=O)(=O)C(F)(F)F)c1C [Compound 25] | 102 µM and 164 µM |  | 9% | 11% | 22% | 34% |  |  | as efficacious as or better than H1
Cc1c(Br)ccc(OCCCC(=O)NS(C)(=O)=O)c1C [Compound 26] | 93 ± 31 µM |  | 10% | 11% | 17% | 13% | 135 ± 30 µM |  | 
COC(=O)CCCOc1ccc(Br)c(C)c1C [Compound 29] | 110 ± 83 µM |  | 8% | 12% | 23% | 14% | 206 ± 77 µM | 60 | 
Cc1c(Br)ccc(OCCCCC(=O)O)c1C [Compound 31] | 120 µM and 138 µM |  | 11% | 17% | 18% | 17% |  |  | no or modest anti-virulence activity without clear dose-response
